One test addresses T1, PI3K gamma (Homo sapiens, UniProt P48736).
T1 construct: His tag (C); made in house; host or cells: baculovirus (pVL1393); Tn5 or TiniPro insect cells; construct from Roger Williams lab, MRC LMB
The experiment in a line: PI3K gamma kinase assay (Kinase-Glo luminescence). The class given is biochemical. In a few lines: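 PI3Kγ (150 nM) reaction run 120 min at room temperature with phosphatidylinositol substrate (10 μg/mL) and ATP (1 μM) in Tris pH 7.5 buffer containing MgCl2, NaCl, CHAPS and DTT. Remaining ATP detected by Kinase-Glo luminescence; 8 concentrations per compound, IC50 from 4-parameter curve fitting.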

Test [1] concerns PKB Ser473 phosphorylation in Rat1-myr-HA-p110 beta cells. Description: Reverse protein array assay, PKB Ser473 phosphorylation in Rat1-myr-p110 beta cells. In kind it is cell-based. Conditions: 0.5 h, pAkt Ser473, 30 minutes incubation, read-out: p-PKB IC50. In a few lines:
(§1)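 Rat1 cells expressing myristoylated HA-tagged p110 alpha, beta or delta were plated for at least 20 h, then exposed to 8-step serial compound dilutions (0.2% DMSO final) for 30 min at 37 °C. Lysates were spotted at four dilutions on protein microarrays, and relative fluorescence intensity of phospho-Ser473 PKB was calculated.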

The target in the next test is T2, PI3K alpha (Homo sapiens, UniProt P42336).
T2 construct: p85(iSH2) fusion partner (see partner chain) (N); His tag (C); made in house; host or cells: baculovirus; Tn5 (Trichoplusia ni) or TiniPro insect cells
The experiment in a line: PI3K alpha kinase assay (Kinase-Glo luminescence). The class given is biochemical. The gist of the method: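 PI3Kα construct EMV B1075 (10 nM final) was preincubated with 10 μg/mL phosphatidylinositol in 10 mM Tris-HCl pH 7.5, 3 mM MgCl2, 50 mM NaCl, 0.05% CHAPS, 1 mM DTT. Reaction started with 1 μM ATP, 60 min at room temperature; remaining ATP measured by Kinase-Glo luminescence. IC50 from 4-parameter logistic fit of 8-point titrations.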
For orientation: Kinase-Glo reads ATP consumption through a luciferase reaction.

A further test deals with T3, PI3K beta (Homo sapiens, UniProt P42338).
T3 construct: for the full-length p110-b subunit are generated and fused by overlapping PCR; p85(iSH2) fusion partner (see partner chain) (N); His tag (C); made in house; host or cells: baculovirus; Tn5 (Trichoplusia ni) or TiniPro insect cells
Description: PI3K beta kinase assay (Kinase-Glo luminescence). In kind it is biochemical. The gist of the method: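 Residual ATP after a 60 min room-temperature reaction is quantified by Kinase-Glo luminescence. Enzyme: 25 nM BV-949 (p85 iSH2–linker–full-length p110β); substrates 1 μM ATP, 10 μg/mL PI; buffer Tris pH 7.5, MgCl2, NaCl, CHAPS, DTT. Eight concentrations per compound, four-parameter logistic IC50.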

The test system of test [2] is PKB Ser473 phosphorylation in Rat1-myr-HA-p110 delta cells. The experiment in a line: Reverse protein array assay, PKB Ser473 phosphorylation in Rat1-myr-p110 delta cells. Conditions: read-out: p-PKB IC50. In kind it is cell-based. In a few lines:
as §1

Another test has as its target T4, PI3K delta (Homo sapiens, UniProt O00329).
T4 construct: for the full-length p110-d subunit are generated and fused by overlapping PCR; p85(iSH2) fusion partner (see partner chain) (N); His tag (C); made in house; host or cells: baculovirus; Tn5 (Trichoplusia ni) or TiniPro insect cells
The experiment in a line: PI3K delta kinase assay (Kinase-Glo luminescence). In kind it is biochemical. In a few lines:
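Recombinant p85(iSH2)-Gly linker-p110δ full-length construct (BV1060, C-terminal His tag) was used at 10 nM with 10 μg/mL phosphatidylinositol and 1 μM ATP in 10 mM Tris-HCl pH 7.5, 3 mM MgCl2, 50 mM NaCl, 0.05% CHAPS, 1 mM DTT. After 60 min at room temperature, remaining ATP was measured by Kinase-Glo luminescence.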

T2 sequence (P42336 with tags, fused parts or gaps limits assumed): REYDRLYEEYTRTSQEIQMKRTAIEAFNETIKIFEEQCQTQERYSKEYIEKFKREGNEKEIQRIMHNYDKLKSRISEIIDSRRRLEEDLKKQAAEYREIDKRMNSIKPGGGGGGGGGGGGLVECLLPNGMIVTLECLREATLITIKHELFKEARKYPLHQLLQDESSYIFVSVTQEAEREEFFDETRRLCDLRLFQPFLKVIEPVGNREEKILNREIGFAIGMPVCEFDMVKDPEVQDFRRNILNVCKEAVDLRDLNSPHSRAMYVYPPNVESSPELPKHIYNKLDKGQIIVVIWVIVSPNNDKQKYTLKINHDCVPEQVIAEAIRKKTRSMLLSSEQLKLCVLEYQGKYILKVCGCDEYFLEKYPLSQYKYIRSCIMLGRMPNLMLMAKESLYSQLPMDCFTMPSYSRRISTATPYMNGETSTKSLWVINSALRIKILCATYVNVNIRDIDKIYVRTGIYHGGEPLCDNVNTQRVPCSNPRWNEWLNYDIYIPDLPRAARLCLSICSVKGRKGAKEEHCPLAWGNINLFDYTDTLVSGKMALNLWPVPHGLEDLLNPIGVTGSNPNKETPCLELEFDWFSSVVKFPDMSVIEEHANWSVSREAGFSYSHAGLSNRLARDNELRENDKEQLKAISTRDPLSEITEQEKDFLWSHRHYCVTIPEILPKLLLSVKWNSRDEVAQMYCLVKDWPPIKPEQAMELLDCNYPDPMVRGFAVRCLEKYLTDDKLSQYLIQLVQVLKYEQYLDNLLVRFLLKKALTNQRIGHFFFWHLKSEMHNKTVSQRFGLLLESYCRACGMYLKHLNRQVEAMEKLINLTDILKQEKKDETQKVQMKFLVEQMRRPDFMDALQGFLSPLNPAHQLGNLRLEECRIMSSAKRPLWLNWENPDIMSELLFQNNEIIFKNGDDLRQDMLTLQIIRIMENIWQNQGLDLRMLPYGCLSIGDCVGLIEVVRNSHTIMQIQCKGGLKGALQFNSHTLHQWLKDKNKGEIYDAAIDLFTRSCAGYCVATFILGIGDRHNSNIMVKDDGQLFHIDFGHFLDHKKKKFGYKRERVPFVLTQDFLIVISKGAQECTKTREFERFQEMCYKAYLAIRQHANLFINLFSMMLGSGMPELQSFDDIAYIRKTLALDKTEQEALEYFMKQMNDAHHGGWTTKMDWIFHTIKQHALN
T1 sequence (P48736 144-1102 limits assumed): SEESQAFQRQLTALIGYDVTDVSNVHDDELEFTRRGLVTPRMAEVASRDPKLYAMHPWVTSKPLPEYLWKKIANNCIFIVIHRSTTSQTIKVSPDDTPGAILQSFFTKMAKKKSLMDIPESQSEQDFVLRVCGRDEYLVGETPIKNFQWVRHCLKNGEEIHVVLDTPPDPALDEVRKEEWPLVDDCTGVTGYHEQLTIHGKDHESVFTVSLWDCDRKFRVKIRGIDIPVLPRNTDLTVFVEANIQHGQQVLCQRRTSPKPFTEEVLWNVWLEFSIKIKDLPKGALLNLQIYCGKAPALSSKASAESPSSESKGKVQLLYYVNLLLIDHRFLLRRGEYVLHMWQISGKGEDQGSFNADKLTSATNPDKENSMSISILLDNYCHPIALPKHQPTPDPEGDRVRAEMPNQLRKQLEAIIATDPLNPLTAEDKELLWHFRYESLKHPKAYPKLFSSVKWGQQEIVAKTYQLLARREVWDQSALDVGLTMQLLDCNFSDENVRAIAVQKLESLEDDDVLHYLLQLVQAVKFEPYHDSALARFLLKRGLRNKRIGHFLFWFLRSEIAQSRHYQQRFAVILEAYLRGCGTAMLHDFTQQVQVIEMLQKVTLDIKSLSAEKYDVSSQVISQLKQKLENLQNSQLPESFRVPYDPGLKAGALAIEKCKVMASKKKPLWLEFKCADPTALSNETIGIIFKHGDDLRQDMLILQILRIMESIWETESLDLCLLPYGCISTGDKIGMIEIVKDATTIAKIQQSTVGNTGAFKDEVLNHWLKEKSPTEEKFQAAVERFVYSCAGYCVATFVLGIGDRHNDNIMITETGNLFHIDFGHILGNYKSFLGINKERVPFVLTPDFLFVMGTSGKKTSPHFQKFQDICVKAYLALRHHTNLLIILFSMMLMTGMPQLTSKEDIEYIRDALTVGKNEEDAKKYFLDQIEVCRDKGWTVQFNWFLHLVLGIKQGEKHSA
T3 sequence (P42338 with tags, fused parts or gaps limits assumed): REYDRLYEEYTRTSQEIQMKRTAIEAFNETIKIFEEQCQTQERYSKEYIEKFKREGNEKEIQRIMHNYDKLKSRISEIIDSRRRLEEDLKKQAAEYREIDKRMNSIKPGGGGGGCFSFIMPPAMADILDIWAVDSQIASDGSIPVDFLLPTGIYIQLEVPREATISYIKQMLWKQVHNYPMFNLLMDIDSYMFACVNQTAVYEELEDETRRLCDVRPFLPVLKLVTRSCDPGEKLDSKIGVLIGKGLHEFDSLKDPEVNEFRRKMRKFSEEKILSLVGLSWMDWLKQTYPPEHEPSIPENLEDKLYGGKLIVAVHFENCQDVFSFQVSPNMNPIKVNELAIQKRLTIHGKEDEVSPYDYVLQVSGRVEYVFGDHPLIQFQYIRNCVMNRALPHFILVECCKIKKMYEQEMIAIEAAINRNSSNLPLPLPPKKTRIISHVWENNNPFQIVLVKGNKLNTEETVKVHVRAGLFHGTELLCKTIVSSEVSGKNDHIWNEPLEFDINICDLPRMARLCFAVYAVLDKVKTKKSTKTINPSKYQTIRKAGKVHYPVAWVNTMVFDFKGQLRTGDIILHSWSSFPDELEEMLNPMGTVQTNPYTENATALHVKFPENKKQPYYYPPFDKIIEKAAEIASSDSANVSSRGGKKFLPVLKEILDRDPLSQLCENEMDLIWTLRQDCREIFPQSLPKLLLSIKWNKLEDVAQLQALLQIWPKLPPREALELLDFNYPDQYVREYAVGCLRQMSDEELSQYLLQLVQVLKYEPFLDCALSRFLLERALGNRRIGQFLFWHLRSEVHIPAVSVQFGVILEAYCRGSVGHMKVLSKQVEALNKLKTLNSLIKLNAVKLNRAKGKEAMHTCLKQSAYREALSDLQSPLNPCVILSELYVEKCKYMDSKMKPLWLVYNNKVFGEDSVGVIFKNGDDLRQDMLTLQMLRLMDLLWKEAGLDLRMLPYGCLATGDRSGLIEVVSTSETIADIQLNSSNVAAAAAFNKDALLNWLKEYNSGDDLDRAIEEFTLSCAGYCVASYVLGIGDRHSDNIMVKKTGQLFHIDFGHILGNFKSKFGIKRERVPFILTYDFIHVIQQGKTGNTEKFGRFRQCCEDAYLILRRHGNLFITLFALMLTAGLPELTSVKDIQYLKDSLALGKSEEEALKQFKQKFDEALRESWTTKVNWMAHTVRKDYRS
T4 sequence (O00329 with tags, fused parts or gaps limits assumed): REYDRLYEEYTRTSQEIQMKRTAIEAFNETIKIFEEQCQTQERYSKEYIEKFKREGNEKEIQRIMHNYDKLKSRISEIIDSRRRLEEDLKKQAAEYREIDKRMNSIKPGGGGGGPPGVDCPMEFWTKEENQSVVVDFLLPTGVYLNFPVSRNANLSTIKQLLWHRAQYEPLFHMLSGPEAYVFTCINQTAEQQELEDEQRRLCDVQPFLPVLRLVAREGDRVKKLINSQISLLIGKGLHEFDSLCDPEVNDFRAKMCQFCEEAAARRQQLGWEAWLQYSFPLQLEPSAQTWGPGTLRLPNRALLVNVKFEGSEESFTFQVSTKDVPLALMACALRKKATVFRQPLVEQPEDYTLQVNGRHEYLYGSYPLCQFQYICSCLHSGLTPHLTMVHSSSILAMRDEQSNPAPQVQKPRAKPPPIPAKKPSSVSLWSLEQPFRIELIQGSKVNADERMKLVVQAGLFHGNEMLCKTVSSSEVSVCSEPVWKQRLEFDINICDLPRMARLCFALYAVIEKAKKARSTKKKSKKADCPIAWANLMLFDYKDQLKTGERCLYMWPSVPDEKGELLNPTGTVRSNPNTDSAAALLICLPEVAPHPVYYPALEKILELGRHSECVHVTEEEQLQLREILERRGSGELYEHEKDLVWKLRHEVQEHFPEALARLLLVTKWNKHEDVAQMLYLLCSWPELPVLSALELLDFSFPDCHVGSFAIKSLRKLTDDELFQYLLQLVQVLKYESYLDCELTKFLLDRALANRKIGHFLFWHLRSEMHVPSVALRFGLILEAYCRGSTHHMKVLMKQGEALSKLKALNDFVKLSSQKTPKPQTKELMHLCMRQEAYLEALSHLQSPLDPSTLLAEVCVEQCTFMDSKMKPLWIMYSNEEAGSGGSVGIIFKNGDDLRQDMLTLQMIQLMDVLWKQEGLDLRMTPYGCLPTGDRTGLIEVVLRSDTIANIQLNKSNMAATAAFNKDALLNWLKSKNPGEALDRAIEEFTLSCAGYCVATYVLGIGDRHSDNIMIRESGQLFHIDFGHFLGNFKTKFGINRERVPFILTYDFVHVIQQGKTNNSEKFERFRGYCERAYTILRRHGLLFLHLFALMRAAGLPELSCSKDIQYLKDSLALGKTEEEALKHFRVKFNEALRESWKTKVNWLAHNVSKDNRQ

The IC50 is the point on the concentration scale where inhibition reaches its midpoint. Regarding `Cc1nn(C)cc1-n1c(=O)n(C)c2cnc3ccc(-c4cncc(OC(C)C)c4)cc3c21` [Example 58.1, 1-(1,3-Dimethyl-1H-pyrazol-4-yl)-8-(5-isopropoxy-pyridin-3-yl)-3-methyl-1,3-dihydro-imidazo[4,5-c]quinolin-2-one], the IC50 at PI3K gamma is 0.095 µM; in test [1], 0.03 µM; on PI3K alpha, 0.006 µM; on PI3K beta it was 0.007 µM; in test [2], 0.043 µM; on PI3K delta, 0.008 µM.
On to `Cc1nn(C)cc1-n1c(=O)n(C)c2cnc3ccc(-c4cccc(S(=O)(=O)N(C)C)c4)cc3c21` [Example 53.1, 3-[1-(1,3-Dimethyl-1H-pyrazol-4-yl)-3-methyl-2-oxo-2,3-dihydro-1H-imidazo[4,5-c]quinolin-8-yl]-N,N-dimethyl-benzenesulfonamide], for which the half-maximal inhibitory concentration (IC50) on PI3K gamma amounted to 0.19 µM; in test [1], 0.043 µM; at PI3K alpha it was 0.016 µM; at PI3K beta, 0.051 µM; in test [2] it was 0.128 µM; at PI3K delta, 0.012 µM.
`COc1ccc(-c2ccc3ncc4c(c3c2)n(-c2ccnn2C)c(=O)n4C)cc1OC` [Example 1.3, 8-(3,4-Dimethoxy-phenyl)-3-methyl-1-(2-methyl-2H-pyrazol-3-yl)-1,3-dihydro-imidazo[4,5-c]quinolin-2-one]: the IC50 is 0.54 µM at PI3K gamma; 0.096 µM in test [1]; 0.014 µM on PI3K alpha; 0.129 µM on PI3K beta; 0.14 µM in test [2]; 0.012 µM on PI3K delta.
For the molecule `CCOc1ccc(-c2ccc3ncc4c(c3c2)n(-c2cn(CC)nc2C)c(=O)n4C)cn1` [Example 3.5, 8-(6-Ethoxy-pyridin-3-yl)-1-(1-ethyl-3-methyl-1H-pyrazol-4-yl)-3-methyl-1,3-dihydro-imidazo[4,5-c]quinolin-2-one], the IC50 on PI3K gamma amounted to 0.357 µM; in test [1], 0.029 µM; at PI3K alpha it was 0.037 µM; at PI3K beta, 0.34 µM; in test [2] it was 0.137 µM; on PI3K delta, 0.04 µM.
As for `Cc1nn(C)cc1-n1c(=O)n(C)c2cnc3ccc(-c4ccccc4)cc3c21` [Example 37.1, 1-(1,3-Dimethyl-1H-pyrazol-4-yl)-3-methyl-8-phenyl-1,3-dihydro-imidazo[4,5-c]quinolin-2-one], the IC50 at PI3K gamma turned out to be 0.144 µM; in test [1], 0.135 µM; at PI3K alpha, 0.034 µM; at PI3K beta it was 0.97 µM; in test [2], 0.219 µM; at PI3K delta, 0.449 µM.
As to `Cc1nn(C)cc1-n1c(=O)n(C)c2cnc3ccc(-c4cnc5c(c4)ncn5C)cc3c21` [Example 74, 1-(1,3-Dimethyl-1H-pyrazol-4-yl)-3-methyl-8-(3-methyl-3H-imidazo[4,5-b]pyridin-6-yl)-1,3-dihydro-imidazo[4,5-c]quinolin-2-one], the IC50 on PI3K gamma was determined as 0.307 µM; in test [1], 0.056 µM; at PI3K alpha, 0.02 µM; on PI3K beta it was 0.37 µM; in test [2] it was 0.28 µM; on PI3K delta, 0.043 µM.
`Cc1nn(C)cc1-n1c(=O)n(C)c2cnc3ccc(-c4ccc(OCCO)nc4)cc3c21` [Example 107, 1-(1,3-Dimethyl-1H-pyrazol-4-yl)-8-[6-(2-hydroxy-ethoxy)-pyridin-3-yl]-3-methyl-1,3-dihydro-imidazo[4,5-c]quinolin-2-one]: the half-maximal inhibitory concentration (IC50) on PI3K gamma came out at 0.147 µM; in test [1] it was 0.101 µM; on PI3K alpha it was 0.017 µM; on PI3K beta it was 0.095 µM; in test [2] it was 0.193 µM; on PI3K delta it was 0.028 µM.
Regarding `COc1ccc(-c2ccc3ncc4c(c3n2)n(-c2cn(C)nc2C)c(=O)n4C)cc1OC` [Example 250, 8-(3,4-Dimethoxy-phenyl)-1-(1,3-dimethyl-1H-pyrazol-4-yl)-3-methyl-1,3-dihydro-1,3,5,9-tetraaza-cyclopenta[a]naphthalen-2-one], the half-maximal inhibitory concentration (IC50) amounted to 0.185 µM on PI3K gamma; 0.097 µM in test [1]; 0.005 µM on PI3K alpha; 0.068 µM on PI3K beta; 0.118 µM in test [2]; 0.017 µM at PI3K delta.
In the case of `CCOc1ccc(-c2ccc3ncc4c(c3c2)n(-c2cnn(C)c2C)c(=O)n4C)cn1` [Example 3.6, 1-(1,5-Dimethyl-1H-pyrazol-4-yl)-8-(6-ethoxy-pyridin-3-yl)-3-methyl-1,3-dihydro-imidazo[4,5-c]quinolin-2-one], the IC50 at PI3K gamma was 0.182 µM; in test [1], 0.119 µM; on PI3K alpha, 0.05 µM; on PI3K beta, 0.477 µM; in test [2] it was 0.232 µM; on PI3K delta, 0.158 µM.
As for `Cc1nn(C)cc1-n1c(=O)n(C)c2cnc3ccc(-c4cccc5c4OC(F)(F)O5)cc3c21` [Example 35, 8-(2,2-Difluoro-benzo[1,3]dioxol-4-yl)-1-(1,3-dimethyl-1H-pyrazol-4-yl)-3-methyl-1,3-dihydro-imidazo[4,5-c]quinolin-2-one], the IC50 at PI3K gamma came to 0.113 µM; in test [1] it was 0.01 µM; at PI3K alpha, 0.005 µM; on PI3K beta, 0.037 µM; in test [2], 0.022 µM; at PI3K delta, 0.029 µM.
On to `CCOc1cc(-c2ccc3ncc4c(c3c2)n(-c2cn(C)nc2C)c(=O)n4C)ccc1OC` [Example 28.3, 1-(1,3-Dimethyl-1H-pyrazo1-4-yl)-8-(3-ethoxy-4-methoxy-phenyl)-3-methyl-1,3-dihydro-imidazo[4,5-c]quinolin-2-one], for which the IC50 at PI3K gamma came out at 0.194 µM; in test [1] it was 0.015 µM; at PI3K alpha, 0.013 µM; at PI3K beta it was 0.031 µM; in test [2] it was 0.024 µM; on PI3K delta, 0.042 µM.
Regarding `COc1ncc(-c2ccc3ncc4c(c3c2)n(-c2cn(C)nc2C)c(=O)n4C)cc1[N+](=O)[O-]` [Example 66, 1-(1,3-dimethyl-1H-pyrazol-4-yl)-8-(6-methoxy-5-nitro-pyridin-3-yl)-3-methyl-1,3-dihydro-imidazo[4,5-c]quinolin-2-one], the IC50 stood at 0.356 µM on PI3K gamma; 0.086 µM in test [1]; 0.036 µM at PI3K alpha; 0.056 µM at PI3K beta; 0.176 µM in test [2]; 0.019 µM on PI3K delta.
As for `Cc1nn(C)cc1-n1c(=O)n(C)c2cnc3ccc(-c4cccc(S(C)(=O)=O)c4)cc3c21` [Example 40, 1-(1,3-Dimethyl-1H-pyrazol-4-yl)-8-(3-methanesulfonyl-phenyl)-3-methyl-1,3-dihydro-imidazo[4,5-c]quinolin-2-one], the IC50 at PI3K gamma was determined as 0.083 µM; in test [1] it was 0.065 µM; at PI3K alpha it was 0.02 µM; at PI3K beta, 0.034 µM; in test [2] it was 0.138 µM; at PI3K delta, 0.023 µM.
Consider `CCn1cc(-n2c(=O)n(C)c3cnc4ccc(-c5ccc(OCCOC)c(OC)c5)cc4c32)c(C)n1` [Example 30.2, 1-(1-Ethyl-3-methyl-1H-pyrazol-4-yl)-8-[3-methoxy-4-(2-methoxy-ethoxy)-phenyl]-3-methyl-1,3-dihydro-imidazo[4,5-c]quinolin-2-one], for which the concentration for half-maximal inhibition (IC50) on PI3K gamma was determined as 0.15 µM; in test [1], 0.043 µM; on PI3K alpha, 0.03 µM; at PI3K beta, 0.239 µM; in test [2], 0.155 µM; on PI3K delta it was 0.042 µM.

(Values after patent US20140005163A1 (NOVARTIS AG, priority 2010, published 2014).)
